Key:
Capan-1 = assay: Cytostatic activity, EZ4U test, pancreas carcinoma cell line Capan-1; format: cell-based; conditions: three days
Experimental: (§1) Cell lines of a colon carcinoma and a pancreas carcinoma, such as Capan-1, DLD-1, HT 29, HCT-8, MLA-PA-CA2, PANCI, BXPC-3, ASPC-1, and HT-29, were examined. The tested cancer cell lines were stored in liquid nitrogen. After defrosting, the cancer cells were cultivated in culture flasks with RPMI-1640+glutamine medium (Gibco® No. 5240025) at 37° C./5% CO2 atmosphere for up to 14 days so that a monolayer of cells was able to form. Thereupon, the cells were harvested with trypsin+EDTA (Gibco® No. 15400-054) and washed twice with an RPMI-medium.
(§2) Apart from poly-[2-(2-ethoxyethoxyethyl)guanidinium hydrochloride], the chemotherapeutic agents cisplatin, epirubicin, mitomycin C and 5-fluorouracil were tested by way of comparison. Therefor, the compounds were at first dissolved according to the respective instructions of the manufacturer and were then stored as a stock solution in aliquots of 1 ml each (concentration of drug substance: 1000 μg/ml) in liquid nitrogen at −180° C. The dissolved substances were used on the very same day.
(§3) In order to determine the cytotoxic activity of the substances, the cancer cells were transferred from the culture flasks with an RPMI-washed suspension at a concentration of 20,000 cells in 200 μl onto microtiter plates. In the presence of varying concentrations of the test substances, the cancer cells were subsequently incubated for three days at a temperature of 37° C. and in an atmosphere of 5% CO2. For the poly-[2-(2-ethoxyethoxyethyl)guanidinium hydrochloride], concentrations of 0.12 to 500 μg/ml (factor 2 dilutions) were used in all test arrangements. After three days of incubation, the evaluation was carried out by means of the nonradioactive cell proliferation and cytotoxicity test EZ4U (Biomedica No. BI-5000 10×96 determinations). After three hours of incubation with EZ4U, the evaluation was carried out photometrically in percent at a wavelength of 49/630 nm in a slidephotometer (extinction of the test sample divided by extinction of the control-sample blank value).

AsPc-1 = assay: Cytostatic activity, EZ4U test, pancreas carcinoma cell line AsPc-1; format: cell-based; conditions: three days
Experimental: as §1, §2, §3

BxPc-3 = assay: Cytostatic activity, EZ4U test, pancreas carcinoma cell line BxPc-3; format: cell-based; conditions: three days
Experimental: as §1, §2, §3

Panc-1 = assay: Cytostatic activity, EZ4U test, pancreas carcinoma cell line Panc-1; format: cell-based; conditions: three days
Experimental: as §1, §2, §3

HAT-29 = assay: Cytostatic activity, EZ4U cell proliferation and cytotoxicity test, colon carcinoma cell line HAT-29; format: cell-based; conditions: three days
Experimental: as §1, §2, §3

HCT-8 = assay: Cytostatic activity, EZ4U test, colon carcinoma cell line HCT-8; format: cell-based; conditions: three days
Experimental: as §1, §2, §3

[1] = format: in vivo; conditions: intravenous or intraperitoneal, up to 15 mg/kg body weight
Experimental: After an (intravenous or intraperitoneal) systemic administration of poly-[2-(2-ethoxyethoxyethyl)guanidinium hydrochloride] in amounts of up to 15 mg/kg body weight, serum concentrations of up to 100 μg/ml are measured in the rat's blood after two hours, whereby, at the same time, the tolerance is good. Therefore, poly-[2-(2-ethoxyethoxyethyl)guanidinium hydrochloride] can be used as a cytostatic drug.

DLD-1 = assay: Cytostatic activity, EZ4U test, colon carcinoma cell line DLD-1; format: cell-based; conditions: three days
Experimental: as §1, §2, §3

Colon 320DM = assay: Cytostatic activity, EZ4U test, colon carcinoma cell line Colon 320DM; format: cell-based; conditions: three days
Experimental: as §1, §2, §3

[2] = test system: lymphocytes of healthy test persons; assay: Vitality of lymphocytes, trypan blue; format: cell-based, human; conditions: for Vitality of lymphocytes in %: 24 hours
Experimental: In addition, lymphocytes of healthy test persons were examined. In doing so, a total amount of 100 ml blood was drawn into EDTA test tubes. The lymphocytes were isolated from the full blood by means of a Mono-Poly Resolving Medium/Ficol-Hypaque gradient, were washed three times with an HBSS buffer and, prepared in this manner, they were added to the test stock.
as §2
The vitality of the lymphocytes was determined in a suspension of 1.2×10^7/ml at varying concentrations of the test substances. In the presence of the test substances, the cell suspensions were incubated for 24 hours at 37° C. and in an atmosphere of 5% CO2 and were then dyed with trypan blue. After dyeing, the lymphocytes were applied onto the counting chamber and their vitality was evaluated in percent.

cancer cells = assay: Cytostatic activity in cancer cell lines (colon and pancreas carcinoma), summary; format: cell-based; conditions: colon carcinoma (HT-29, HCT-8, DLD-1) and pancreas carcinoma (ASPC-1, BXPC-3, CAPAN-1, PANC-1) cell lines
Experimental: as §1
as §3, with “After three hours of incubation with EZ4U, the evaluation was carried out photometrically in percent at a wavelength of 49/630 nm in a slidephotometer (extinction of the test sample divided by extinction of the control-sample blank value).” left out

HCT-15 = assay: Cytostatic activity, EZ4U test, colon carcinoma cell line HCT-15; format: cell-based; conditions: three days
Experimental: as §1, §2, §3

Colon 205 = assay: Cytostatic activity, EZ4U test, colon carcinoma cell line Colon 205; format: cell-based; conditions: three days
Experimental: as §1, §2, §3

MIA PaCa-2 = assay: Cytostatic activity, EZ4U test, pancreas carcinoma cell line MIA PaCa-2; format: cell-based; conditions: three days
Experimental: as §1, §2, §3

N.N.[Cl][Pt][Cl] [Cisplatin]
vitality in % (Capan-1; 0.025 μg/ml): 94%
vitality in % (Capan-1; 0.25 μg/ml): 54%
vitality in % (Capan-1; 2.5 μg/ml): 36%
vitality in % (AsPc-1; 0.025 μg/ml): 85%
vitality in % (AsPc-1; 0.25 μg/ml): 89%
vitality in % (AsPc-1; 2.5 μg/ml): 53%
vitality in % (BxPc-3; 0.025 μg/ml): 87%
vitality in % (BxPc-3; 0.25 μg/ml): 65%
vitality in % (BxPc-3; 2.5 μg/ml): 93%

COc1cccc2c1C(=O)c1c(O)c3c(c(O)c1C2=O)C[C@@](O)(C(=O)CO)C[C@@H]3O[C@H]1C[C@H](N)[C@@H](O)[C@H](C)O1 [Epirubicin]
vitality in % (Capan-1; 0.12 μg/ml): 50%
vitality in % (Capan-1; 1.19 μg/ml): 35%
vitality in % (Capan-1; 11.9 μg/ml): 54%
vitality in % (AsPc-1; 0.12 μg/ml): 105%
vitality in % (AsPc-1; 1.19 μg/ml): 59%
vitality in % (AsPc-1; 11.9 μg/ml): 55%
vitality in % (BxPc-3; 0.12 μg/ml): 76%
vitality in % (BxPc-3; 1.19 μg/ml): 55%
vitality in % (BxPc-3; 11.9 μg/ml): 62%
vitality in % (Panc-1; 0.12 μg/ml): 111%
vitality in % (Panc-1; 1.19 μg/ml): 43%
vitality in % (Panc-1; 11.9 μg/ml): 61%

CO[C@@]12[C@H](COC(N)=O)C3=C(C(=O)C(C)=C(N)C3=O)N1C[C@@H]1N[C@@H]12 [Mitomycin C]
vitality in % (Capan-1; 0.015 μg/ml): 59%
vitality in % (Capan-1; 0.15 μg/ml): 30%
vitality in % (Capan-1; 1.5 μg/ml): 22%
vitality in % (AsPc-1; 0.015 μg/ml): 98%
vitality in % (AsPc-1; 0.15 μg/ml): 89%
vitality in % (AsPc-1; 1.5 μg/ml): 65%
vitality in % (BxPc-3; 0.015 μg/ml): 100%
vitality in % (BxPc-3; 0.15 μg/ml): 91%
vitality in % (BxPc-3; 1.5 μg/ml): 47%
vitality in % (Panc-1; 0.015 μg/ml): 104%
vitality in % (Panc-1; 0.15 μg/ml): 103%
vitality in % (Panc-1; 1.5 μg/ml): 55%

O=c1[nH]cc(F)c(=O)[nH]1 [5-Fluorouracil]
vitality in % (Capan-1; 0.6 μg/ml): 46%
vitality in % (Capan-1; 6 μg/ml): 38%
vitality in % (Capan-1; 60 μg/ml): 23%
vitality in % (AsPc-1; 0.6 μg/ml): 92%
vitality in % (AsPc-1; 6 μg/ml): 88%
vitality in % (AsPc-1; 60 μg/ml): 71%
vitality in % (BxPc-3; 0.6 μg/ml): 86%
vitality in % (BxPc-3; 6 μg/ml): 79%
vitality in % (BxPc-3; 60 μg/ml): 67%
vitality in % (Panc-1; 0.6 μg/ml): 80%
vitality in % (Panc-1; 6 μg/ml): 77%
vitality in % (Panc-1; 60 μg/ml): 62%

poly-[2-(2-ethoxyethoxyethyl)guanidinium hydrochloride]
vitality in % (HAT-29; 0.125 μg/ml): 76%
vitality in % (HAT-29; 0.25 μg/ml): 85%
vitality in % (HAT-29; 0.5 μg/ml): 98%
vitality in % (HAT-29; 1 μg/ml): 88%
vitality in % (HAT-29; 2 μg/ml): 77%
vitality in % (HAT-29; 4 μg/ml): 76%
vitality in % (HAT-29; 8 μg/ml): 47%
vitality in % (HAT-29; 16 μg/ml): 21%
vitality in % (HAT-29; 32 μg/ml): 13%
vitality in % (HAT-29; 64 μg/ml): 11%
vitality in % (Capan-1; 2 μg/ml): 115%
vitality in % (Capan-1; 4 μg/ml): 111%
vitality in % (Capan-1; 8 μg/ml): 95%
vitality in % (Capan-1; 16 μg/ml): 114%
vitality in % (Capan-1; 32 μg/ml): 79%
vitality in % (Capan-1; 64 μg/ml): 46%
vitality in % (HCT-8; 0.125 μg/ml): 88%
vitality in % (HCT-8; 0.25 μg/ml): 70%
vitality in % (HCT-8; 0.5 μg/ml): 79%
vitality in % (HCT-8; 1 μg/ml): 85%
vitality in % (HCT-8; 2 μg/ml): 90%
vitality in % (HCT-8; 4 μg/ml): 114%
vitality in % (HCT-8; 8 μg/ml): 91%
vitality in % (HCT-8; 16 μg/ml): 34%
vitality in % (HCT-8; 32 μg/ml): 15%
vitality in % (HCT-8; 64 μg/ml): 11%
serum concentrations in the rat's blood ([1]; after two hours): up to 100 μg/ml
tolerance ([1]; rat): good
vitality in % (AsPc-1; 2 μg/ml): 92%
vitality in % (AsPc-1; 4 μg/ml): 70%
vitality in % (AsPc-1; 8 μg/ml): 50%
vitality in % (AsPc-1; 16 μg/ml): 15%
vitality in % (AsPc-1; 32 μg/ml): 12%
vitality in % (AsPc-1; 64 μg/ml): 13%
vitality in % (DLD-1; 2 μg/ml): 103%
vitality in % (DLD-1; 4 μg/ml): 86%
vitality in % (DLD-1; 8 μg/ml): 49%
vitality in % (DLD-1; 16 μg/ml): 26%
vitality in % (DLD-1; 32 μg/ml): 17%
vitality in % (DLD-1; 64 μg/ml): 15%
vitality in % (Colon 320DM; 2 μg/ml): 79%
vitality in % (Colon 320DM; 4 μg/ml): 37%
vitality in % (Colon 320DM; 8 μg/ml): 26%
vitality in % (Colon 320DM; 16 μg/ml): 24%
vitality in % (Colon 320DM; 32 μg/ml): 22%
vitality in % (Colon 320DM; 64 μg/ml): 21%
Vitality of lymphocytes in % ([2]; 12.5 μg/ml): 98%
Vitality of lymphocytes in % ([2]; 25 μg/ml): 100%
Vitality of lymphocytes in % ([2]; 50 μg/ml): 96%
Vitality of lymphocytes in % ([2]; 100 μg/ml): 98%
Vitality of lymphocytes in % ([2]; 250 μg/ml): 30%
Vitality of lymphocytes in % ([2]; 500 μg/ml): 16%
Vitality of lymphocytes in % ([2]; 1000 μg/ml): 1%
concentrations from which cytostatic activity has been observed ([2]; healthy endogenous cells such as lymphocytes (table 4)): ≥ 100 µg/mL
vitality in % (BxPc-3; 2 μg/ml): 63%
vitality in % (BxPc-3; 4 μg/ml): 74%
vitality in % (BxPc-3; 8 μg/ml): 44%
vitality in % (BxPc-3; 16 μg/ml): 18%
vitality in % (BxPc-3; 32 μg/ml): 11%
vitality in % (BxPc-3; 64 μg/ml): 9%
cytostatic activity (cancer cells): excellent cytostatic activity
vitality in % (HCT-15; 2 μg/ml): 81%
vitality in % (HCT-15; 4 μg/ml): 81%
vitality in % (HCT-15; 8 μg/ml): 69%
vitality in % (HCT-15; 16 μg/ml): 25%
vitality in % (HCT-15; 32 μg/ml): 18%
vitality in % (HCT-15; 64 μg/ml): 16%
vitality in % (Colon 205; 2 μg/ml): 70%
vitality in % (Colon 205; 4 μg/ml): 59%
vitality in % (Colon 205; 8 μg/ml): 27%
vitality in % (Colon 205; 16 μg/ml): 16%
vitality in % (Colon 205; 32 μg/ml): 16%
vitality in % (Colon 205; 64 μg/ml): 15%
vitality in % (Panc-1; 2 μg/ml): 88%
vitality in % (Panc-1; 4 μg/ml): 90%
vitality in % (Panc-1; 8 μg/ml): 55%
vitality in % (Panc-1; 16 μg/ml): 30%
vitality in % (Panc-1; 32 μg/ml): 16%
vitality in % (Panc-1; 64 μg/ml): 11%
vitality in % (MIA PaCa-2; 2 μg/ml): 106%
vitality in % (MIA PaCa-2; 4 μg/ml): 97%
vitality in % (MIA PaCa-2; 8 μg/ml): 58%
vitality in % (MIA PaCa-2; 16 μg/ml): 16%
vitality in % (MIA PaCa-2; 32 μg/ml): 12%
vitality in % (MIA PaCa-2; 64 μg/ml): 11%

Source: patent publication US8198333B2, “Cytostatic drug composition” (Geopharma Produktions GmbH, priority 2004, dated 2012)
